Experimental data from patent publication US20020026053A1, “Novel 3-(substituted) -2- indolinones compounds and use thereof as inhibitors of protein kinase activity” (priority 1997, published 2002).

biological target: T1, Met receptor (EGFR/Met chimeric cells, EMR) (Homo sapiens, UniProt P08581); assay: Met Autophosphorylation Assay; type: biochemical; conditions: protocol P.130
T1 construct: expressed in transfected cells; the other entry of the earlier key: EGFR (P00533, Epidermal growth factor receptor)
T1 sequence (P08581 with tags, fused parts or gaps): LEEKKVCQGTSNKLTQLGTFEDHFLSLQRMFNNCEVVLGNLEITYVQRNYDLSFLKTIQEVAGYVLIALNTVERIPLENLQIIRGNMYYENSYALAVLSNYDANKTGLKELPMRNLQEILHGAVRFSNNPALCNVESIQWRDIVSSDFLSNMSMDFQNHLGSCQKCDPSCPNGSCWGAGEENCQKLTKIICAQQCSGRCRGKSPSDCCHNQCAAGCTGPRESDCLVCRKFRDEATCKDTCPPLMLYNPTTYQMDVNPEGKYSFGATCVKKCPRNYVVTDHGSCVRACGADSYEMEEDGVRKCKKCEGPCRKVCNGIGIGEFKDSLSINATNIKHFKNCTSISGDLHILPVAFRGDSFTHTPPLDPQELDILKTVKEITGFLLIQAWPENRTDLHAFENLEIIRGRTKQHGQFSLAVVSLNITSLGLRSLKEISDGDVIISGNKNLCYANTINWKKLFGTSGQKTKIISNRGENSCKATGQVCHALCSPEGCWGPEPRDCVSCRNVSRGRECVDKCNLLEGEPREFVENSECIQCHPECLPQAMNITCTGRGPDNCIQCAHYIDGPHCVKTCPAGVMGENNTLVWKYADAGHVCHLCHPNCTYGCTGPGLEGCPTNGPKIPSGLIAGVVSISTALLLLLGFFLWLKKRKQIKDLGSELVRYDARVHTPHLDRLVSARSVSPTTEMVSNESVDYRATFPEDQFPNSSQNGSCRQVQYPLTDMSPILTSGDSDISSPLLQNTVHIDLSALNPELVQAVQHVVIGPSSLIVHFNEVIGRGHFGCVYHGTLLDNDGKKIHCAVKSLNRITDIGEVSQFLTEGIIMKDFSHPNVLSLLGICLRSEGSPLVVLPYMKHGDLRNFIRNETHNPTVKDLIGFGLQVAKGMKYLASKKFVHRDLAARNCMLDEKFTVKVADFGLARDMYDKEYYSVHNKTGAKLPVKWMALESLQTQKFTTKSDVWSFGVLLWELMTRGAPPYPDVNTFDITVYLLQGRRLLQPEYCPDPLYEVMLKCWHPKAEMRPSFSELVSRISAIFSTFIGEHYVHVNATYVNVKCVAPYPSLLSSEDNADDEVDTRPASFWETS
Outline: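 Met phosphorylation was measured by capture ELISA. Lysates (90 μg/100 μl, HNTG plus 1 mM PMSF) from transiently transfected EGFR/Met chimera (EMR) cells were bound for 60 min at room temperature to wells holding rabbit anti-Met (C-28) on goat anti-rabbit coat. Phosphotyrosine was the read-out.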

In order of rising “Met Kinase % Inhibition (P.130)” value:
1. CN(C)CCCOc1ccc(C=C2C(=O)Nc3ccc(S(=O)(=O)N4CCOCC4)cc32)cc1 [10739/F09]  −7.0%
2. Cc1c(Br)cc(Br)c2c1C(=Cc1ccc(OCc3ccccc3)cc1)C(=O)N2 [10739/H04]  −2.7%
3. O=C1Nc2ccc(CCCl)cc2C1=Cc1ccc(OCc2ccccc2)cc1 [10739/G04]  4.1%
4. O=C1Nc2ccc(CCCl)cc2C1=Cc1cccc(OCc2ccccc2)c1 [10739/G03]  9.3%
5. Cc1c(Br)cc(Br)c2c1C(=Cc1cccc(OCc3ccccc3)c1)C(=O)N2 [10739/H03]  10.4%
6. COc1ccc(Oc2cccc(C=C3C(=O)Nc4ccc(S(=O)(=O)N5CCOCC5)cc43)c2)cc1 [10739/F08]  13.4%
7. COc1ccc(Oc2cccc(C=C3C(=O)Nc4ccc(CCCl)cc43)c2)cc1 [10739/G08]  20.9%
8. COc1ccc(Oc2cccc(C=C3C(=O)Nc4c(Br)cc(Br)c(C)c43)c2)cc1 [10739/H08]  22.9%
9. COc1ccc(C=C2C(=O)Nc3c(Br)cc(Br)c(C)c32)cc1C [10739/H02]  26.6%
10. O=C1Nc2ccc(CCCl)cc2C1=CC1COc2ccccc2O1 (centres unmarked) [10739/G05]  27.7%
11. O=C1Nc2ccc(CCCl)cc2C1=Cc1ccc(O)cc1Cl [10739/G06]  27.7%
12. O=C1Nc2ccc(CCCl)cc2C1=Cc1ccoc1 [10739/G10]  36.5%
13. O=C1Nc2ccc(S(=O)(=O)N3CCOCC3)cc2C1=Cc1ccoc1 [10739/F10]  40.4%
14. O=C1Nc2ccc(S(=O)(=O)N3CCOCC3)cc2C1=Cc1ccc(CO)o1 [10739/F11]  40.9%
15. Cc1c(Br)cc(Br)c2c1C(=Cc1ccc(O)cc1Cl)C(=O)N2 [10739/H06]  42.2%
16. CN(C)CCCOc1ccc(C=C2C(=O)Nc3ccc(CCCl)cc32)cc1 [10739/G09]  46.1%
17. O=C1Nc2ccc(S(=O)(=O)N3CCOCC3)cc2C1=Cc1ccc(O)cc1Cl [10739/F06]  56.3%
18. O=C1Nc2ccc(CCCl)cc2C1=Cc1ccc(CO)o1 [10739/G11]  56.7%
19. Cc1c(Br)cc(Br)c2c1C(=Cc1ccoc1)C(=O)N2 [10739/H10]  62.4%
20. O=C1Nc2ccc(CCCl)cc2C1=Cc1cc(O)c(O)c(O)c1 [10739/G07]  92.6%
21. Cc1c(Br)cc(Br)c2c1C(=Cc1cc(O)c(O)c(O)c1)C(=O)N2 [10739/H07]  93.7%
22. O=C1Nc2ccc(S(=O)(=O)N3CCOCC3)cc2C1=Cc1cc(O)c(O)c(O)c1 [10739/F07]  100.5%

COc1ccc(C=C2C(=O)Nc3ccc(CCCl)cc32)cc1C [10739/G02] was tested, and the “Met Kinase % Inhibition (P.130)” value was 12.9. %.
